# In PubChem BioAssay AID2060484 (Molecular Pharmacology Branch, DTP, NCI, 2025):
# Test system: SUM149PT spheroids with HUVEC/MSC, viability
# Test: Anticancer human tumor SUM149PT cell line growth inhibition [GQUAD];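 note: spheroids exposed to drugs for seven days before readout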;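 for viability, T/C: percent viability relative to DMSO vehicle control taken as 100%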
# Settings: for IC50: curve of first compound; for viability, T/C: stronger effect = lower value
# In short: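 Tumor cells were grown as complex spheroids with HUVEC endothelial cells and mesenchymal stem cells as stroma. G-quadruplex stabilizers were combined with targeted agents over half-log dilutions from near the clinical Cmax, or from 10 microM.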
# [1] = second compound 0.0316 µM, first compound 0.0316 µM
# [2] = second compound 0.0316 µM, first compound 0.1 µM
# [3] = second compound 0.0316 µM, first compound 0.316 µM
# [4] = second compound 0.0316 µM, first compound 1 µM
# [5] = second compound 0.0316 µM, first compound 3.16 µM
# [6] = second compound 0.0316 µM, first compound 10 µM
# [7] = second compound 0.1 µM, first compound 0.0316 µM
# [8] = second compound 0.1 µM, first compound 0.1 µM
# [9] = second compound 0.1 µM, first compound 0.316 µM
# [10] = second compound 0.1 µM, first compound 1 µM
# [11] = second compound 0.1 µM, first compound 3.16 µM
# [12] = second compound 0.1 µM, first compound 10 µM
# [13] = second compound 0.316 µM, first compound 0.0316 µM
# [14] = second compound 0.316 µM, first compound 0.1 µM
# [15] = second compound 0.316 µM, first compound 0.316 µM
# [16] = second compound 0.316 µM, first compound 1 µM
# [17] = second compound 0.316 µM, first compound 3.16 µM
# [18] = second compound 0.316 µM, first compound 10 µM
# [19] = second compound 1 µM, first compound 0.0316 µM
# [20] = second compound 1 µM, first compound 0.1 µM
# [21] = second compound 1 µM, first compound 0.316 µM
# [22] = second compound 1 µM, first compound 1 µM
# [23] = second compound 1 µM, first compound 3.16 µM
# [24] = second compound 1 µM, first compound 10 µM
# [25] = second compound 3.16 µM, first compound 0.0316 µM
# [26] = second compound 3.16 µM, first compound 0.1 µM
# [27] = second compound 3.16 µM, first compound 0.316 µM
# [28] = second compound 3.16 µM, first compound 1 µM
# [29] = second compound 3.16 µM, first compound 3.16 µM
# [30] = second compound 3.16 µM, first compound 10 µM
# [31] = second compound 10 µM, first compound 0.0316 µM
# [32] = second compound 10 µM, first compound 0.1 µM
# [33] = second compound 10 µM, first compound 0.316 µM
# [34] = second compound 10 µM, first compound 1 µM
# [35] = second compound 10 µM, first compound 3.16 µM
# [36] = second compound 10 µM, first compound 10 µM
structure (smiles),measurement,setting,value
CC(C)(O)C1CCC(Nc2ccc3ncc(-c4cccc(C(F)(F)F)c4)n3n2)CC1 (centres undefined) + Cc1[nH]c2ccc(F)cc2c1-c1nc2c3cccnc3c3ncccc3c2[nH]1,IC50,second compound 0.0316 µM,5.92 µM
same,IC50,second compound 0.1 µM,> 10 µM
same,IC50,second compound 0.316 µM,3.81 µM
same,IC50,second compound 1 µM,7.9 µM
same,IC50,second compound 3.16 µM,2.36 µM
same,IC50,second compound 10 µM,1.91 µM
same,"viability, T/C",[1],103%
same,"viability, T/C",[2],96.5%
same,"viability, T/C",[3],80.2%
same,"viability, T/C",[4],63.9%
same,"viability, T/C",[5],44.6%
same,"viability, T/C",[6],53.3%
same,"viability, T/C",[7],90.9%
same,"viability, T/C",[8],90.4%
same,"viability, T/C",[9],84.2%
same,"viability, T/C",[10],67.4%
same,"viability, T/C",[11],51%
same,"viability, T/C",[12],55.9%
same,"viability, T/C",[13],105%
same,"viability, T/C",[14],97.7%
same,"viability, T/C",[15],85.5%
same,"viability, T/C",[16],68.8%
same,"viability, T/C",[17],43.3%
same,"viability, T/C",[18],51%
same,"viability, T/C",[19],97.4%
same,"viability, T/C",[20],96.4%
same,"viability, T/C",[21],89.2%
same,"viability, T/C",[22],68%
same,"viability, T/C",[23],47.4%
same,"viability, T/C",[24],52.9%
same,"viability, T/C",[25],95.5%
same,"viability, T/C",[26],81.5%
same,"viability, T/C",[27],85.4%
same,"viability, T/C",[28],70%
same,"viability, T/C",[29],40%
same,"viability, T/C",[30],46.3%
same,"viability, T/C",[31],99%
same,"viability, T/C",[32],87.5%
same,"viability, T/C",[33],79.7%
same,"viability, T/C",[34],59.9%
same,"viability, T/C",[35],38.5%
same,"viability, T/C",[36],43.1%
O=C(c1cc(Cc2n[nH]c(=O)c3ccccc23)ccc1F)N1CCN(C(=O)C2CC2)CC1 + CN(C)c1ccc(Nc2c3ccc(NC(=O)CCN4CCCC4)cc3nc3cc(NC(=O)CCN4CCCC4)ccc23)cc1,IC50,second compound 0.0316 µM,> 10 µM
same,IC50,second compound 0.1 µM,> 10 µM
same,IC50,second compound 0.316 µM,> 10 µM
same,IC50,second compound 1 µM,> 10 µM
same,IC50,second compound 3.16 µM,> 10 µM
same,IC50,second compound 10 µM,> 10 µM
same,"viability, T/C",[1],104%
same,"viability, T/C",[2],103%
same,"viability, T/C",[3],94.5%
same,"viability, T/C",[4],100%
same,"viability, T/C",[5],102%
same,"viability, T/C",[6],88.8%
same,"viability, T/C",[7],95%
same,"viability, T/C",[8],101%
same,"viability, T/C",[9],102%
same,"viability, T/C",[10],104%
same,"viability, T/C",[11],98%
same,"viability, T/C",[12],81.4%
same,"viability, T/C",[13],87.6%
same,"viability, T/C",[14],93.5%
same,"viability, T/C",[15],101%
same,"viability, T/C",[16],101%
same,"viability, T/C",[17],111%
same,"viability, T/C",[18],82%
same,"viability, T/C",[19],85.3%
same,"viability, T/C",[20],86.6%
same,"viability, T/C",[21],89.9%
same,"viability, T/C",[22],104%
same,"viability, T/C",[23],92.4%
same,"viability, T/C",[24],66.3%
same,"viability, T/C",[25],93.7%
same,"viability, T/C",[26],91%
same,"viability, T/C",[27],90.5%
same,"viability, T/C",[28],94.2%
same,"viability, T/C",[29],95.2%
same,"viability, T/C",[30],70.5%
same,"viability, T/C",[31],78.8%
same,"viability, T/C",[32],81.9%
same,"viability, T/C",[33],81.9%
same,"viability, T/C",[34],90.4%
same,"viability, T/C",[35],86.3%
same,"viability, T/C",[36],64.5%
